Experimental data as given in patent US20060247320A1, “Compounds for inhibiting KSP kinesin activity” (priority 2005, published 2006).

What follows are molecules tested against T1, KSP motor domain (Homo sapiens, UniProt P52732) (assay: biochemical). Conditions: IC50 (nM), KSP inhibitory activity, end-point assay; class symbols (Table 1).
T1 sequence (P52732 18-359 limits assumed): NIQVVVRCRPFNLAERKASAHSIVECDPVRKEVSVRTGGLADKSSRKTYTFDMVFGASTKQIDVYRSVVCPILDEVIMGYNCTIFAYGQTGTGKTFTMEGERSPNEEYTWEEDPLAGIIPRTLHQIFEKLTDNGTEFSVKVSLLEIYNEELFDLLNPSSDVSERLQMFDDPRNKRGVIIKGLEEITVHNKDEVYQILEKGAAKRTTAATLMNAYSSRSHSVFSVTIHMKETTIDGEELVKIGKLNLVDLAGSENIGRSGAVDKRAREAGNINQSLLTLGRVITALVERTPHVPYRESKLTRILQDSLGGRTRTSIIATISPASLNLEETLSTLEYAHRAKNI

SMILES	IC50
CCOC(=O)c1sc2nc3c(cc2c1N)CC([Si](C)(C)C)CC3 (stereo not drawn) [Example 187, Ethyl 3-Amino-5,6,7,8-Tetrahydro-6-(Trimethylsilyl)thieno[2,3-b]quinoline-2-Carboxylate]	> 10000 nM

Same assay, conditions: KSP inhibitory activity, end-point assay; class symbols (Table 1)

SMILES	IC50 (nM)
C[C@@H](CO)NC(=O)c1cc2cc3c(nc2s1)CCC([Si](C)(C)C)C3 (stereo partly drawn) [Example 190, 5,6,7,8-Tetrahydro-N-(2-hydroxy-1(S)-methylethyl)-6-(Trimethylsilyl)thieno[2,3-b]quinoline-2-Carboxamide]	B/C

Same assay, conditions: KSP inhibitory activity, end-point assay; class symbols (Table 1); read-out: IC50

SMILES	IC50
CC(C)(C)[C@@H]1CCc2nc3sc(C(=O)N[C@H](CN)c4cccc(NCc5cccnc5)c4)cc3cc2C1 [Example 282]	< 100 nM
CC(C)=C/C=C1\CCc2nc3sc(C#N)c(N)c3cc2C1 [Example 36]	> 10000 nM
CC(C)(C)C1CCc2nc3sc(C(=O)N[C@@H](Cc4ccc(O)cc4)C(=N)N)cc3cc2C1 (stereo partly drawn) [Example 174]	1000 to 10000 nM
CC1Cc2nc3sc(C#N)c(N)c3cc2C(C)C1 (stereo not drawn) [Example 46]	> 10000 nM
C[C@@H]1CN[C@@H](C)CN1C(=O)Nc1cccc([C@@H](CN)NC(=O)c2cc3cc4c(nc3s2)CC[C@@H](C(C)(C)C)C4)c1 [Example 278]	100 to 1000 nM
CC(C)(C)C1CCc2nc3sc(C(=O)N[C@H](CN)Cc4ccc(O)cc4)cc3cc2C1 (stereo partly drawn) [Example 180]	100 to 1000 nM
CC(C)(C)C1CCc2nc3sc(C(=O)NCCN4CCNCC4)cc3cc2C1 (stereo not drawn) [Example 197, 6-(1,1-Dimethylethyl)-5,6,7,8-Tetrahydro-N-[2-(1-Piperazinyl)ethyl]thieno[2,3-b]quinoline-2-Carboxamide]	100 to 1000 nM
CC(C)[C@@H](CO)NC(=O)c1cc2cc3c(nc2s1)CCC(C(C)(C)C)C3 (stereo partly drawn) [Example 157, 6-tert-Butyl-5,6,7,8-tetrahydrothieno[2,3-b]quinoline-2-carboxylic acid [(1S)-1-hydroxymethyl-2-methyl-propyl]amide]	> 10000 nM
CC(C)(C)C1CCc2nc3sc(C(N)=S)cc3cc2C1 (stereo not drawn) [Example 70, 6-tert-butyl-5,6,7,8-tetrahydrothieno[2,3-b]quinoline-2-carbothioic acid amide]	100 to 1000 nM
Cc1[nH]ncc1C(=O)Nc1cccc([C@@H](CN)NC(=O)c2cc3cc4c(nc3s2)CC[C@@H](C(C)(C)C)C4)c1 [Example 243]	< 100 nM
CC(C)(C)[C@@H]1CCc2nc3sc(C(=O)N[C@H](CN)c4cccc(NC(=O)c5nscc5N)c4)cc3cc2C1 [Example 254]	100 to 1000 nM
CC(C1CCc2nc3sc(C#N)c(N)c3cc2C1)C(C)(C)C (stereo not drawn) [Example 23]	> 10000 nM
Cn1ncc(C(=O)Nc2cccc([C@@H](CN)NC(=O)c3cc4cc5c(nc4s3)CC[C@@H](C(C)(C)C)C5)c2)c1C(F)(F)F [Example 245]	< 100 nM
CCC1Cc2nc3sc(C#N)cc3cc2CC1C(C)(C)C (stereo not drawn) [Example 206, 6-tert-Butyl-7-ethyl-5,6,7,8-tetrahydro-thieno[2,3,-b]quinoline-2-carbonitrile]	1000 to 10000 nM
CC(C)(C)C1CCc2nc3sc(C(=O)N[C@H](C(=N)N)c4ccccc4)cc3cc2C1 (stereo partly drawn) [Example 172]	100 to 1000 nM
CC1Cc2nc3sc(C#N)c(N)c3cc2CC1C(C)(C)C (stereo not drawn) [Example 202, 3-Amino-6-tert-butyl-7-methyl-5,6,7,8-tetrahydrothieno[2,3-b]quinoline-2-carbonitrile]	100 to 1000 nM
CC(C)(C)C1CCc2nc3sc(C(=O)N[C@H](CN)c4ccsc4)cc3cc2C1 (stereo partly drawn) [Example 284, 6-tert-butyl-5,6,7,8-tetrahydro-thieno[2,3-b]quinoline-2-carboxylic acid (2-amino-1(S)-thiophen-3-yl-ethyl)-amide]	< 100 nM
CC(C)CC1CCc2nc3sc(C#N)c(N)c3cc2C1 (stereo not drawn) [Example 27]	1000 to 10000 nM
CN1CCN(C(=O)Nc2cccc([C@@H](CN)NC(=O)c3cc4cc5c(nc4s3)CC[C@@H](C(C)(C)C)C5)c2)CC1 [Example 275, 6(R)-tert-butyl-5,6,7,8-tetrahydro-thieno[2,3-b]quinoline-2-carboxylic acid (2-amino-1(S)-{3-[(4-methyl-piperazine-1-carbonyl)-amino]-phenyl}-ethyl)-amide]	< 100 nM
N#Cc1sc2nc3c(cc2c1N)CCC(C(F)(F)F)C3 (stereo not drawn) [Example 50]	> 10000 nM
COC(=O)[C@H]1C[C@@H](O)CN1C(=O)c1cc2cc3c(nc2s1)CCC(C(C)(C)C)C3 (stereo partly drawn) [Example 92]	> 10000 nM
COC(=O)C(CO)NC(=O)c1cc2cc3c(nc2s1)CCC(C(C)(C)C)C3 (stereo not drawn) [Example 94]	100 to 1000 nM
C[C@@H]1CN(C(=O)Nc2cccc([C@@H](CN)NC(=O)c3cc4cc5c(nc4s3)CC[C@@H](C(C)(C)C)C5)c2)C[C@H](C)N1 [Example 279]	< 100 nM
CC(C)(C)[C@@H]1CCc2nc3sc(C(=O)N[C@H](CN)c4cccc(NC(=O)c5cncc(N)n5)c4)cc3cc2C1 [Example 260]	< 100 nM

SMILES	IC50
CC(C)(C)C1CCc2nc3sc(C(=O)N[C@H](CN)c4cccc(-c5cccc6cccnc56)c4)cc3cc2C1 (stereo partly drawn) [Example 213, 6-tert-butyl-5,6,7,8-tetrahydro-thieno[2,3-b]quinoline-2-carboxylic acid [(1S)-2-amino-1-(3-quinolin-8-yl-phenyl)-ethyl]-amide]	100 to 1000 nM
CC(C)(C)C1CCc2nc3sc(C(=O)NCCCN4CCCC4=O)cc3cc2C1 (stereo not drawn) [Example 196, 6-(1,1-Dimethylethyl)-5,6,7,8-Tetrahydro-N-[3-(2-oxo-1-Pyrrolidinyl)propyl]thieno[2,3-b]quinoline-2-Carboxamide]	1000 to 10000 nM
Cc1cc(C(=O)Nc2cccc([C@@H](CN)NC(=O)c3cc4cc5c(nc4s3)CC[C@@H](C(C)(C)C)C5)c2)no1 [Example 229]	< 100 nM
CC(C)(C)C1CCc2nc3sc4c(=O)[nH]nnc4c3cc2C1 (stereo not drawn) [Example 119, 7-tert-Butyl-6,7,8,9-tetrahydro2H-11-thia-2,3,4,10-tetraazabenzo[b]fluoren-1-one]	1000 to 10000 nM
CC(C)C(C)(C)C1CCc2nc3sc(C#N)c(N)c3cc2C1 (stereo not drawn) [Example 7]	> 10000 nM
CC(C)(C)[C@@H]1CCc2nc3sc(C(=O)N[C@H](CN)c4cccc(NC(=O)c5cc[nH]n5)c4)cc3cc2C1 [Example 236]	< 100 nM
CC(C)(C)C1CCc2nc3sc(C(=O)N[C@H](CO)Cc4ccccc4)cc3cc2C1 (stereo partly drawn) [Example 159]	> 10000 nM
CC(C)(C)C1CCc2nc3sc(C(=O)Nc4ccncc4N)cc3cc2C1 (stereo not drawn) [Example 226E]	100 to 1000 nM
CC(CO)NC(=O)c1sc2nc3c(cc2c1N)CC(C(C)(C)C)CC3 (stereo in doubt) [Example 192, 3-Amino-6-(1,1-Dimethylethyl)-5,6,7,8-Tetrahydro-N-(2-Hydroxy-1(S)-Methylethyl)thieno[2,3-b]quinoline-2-Carboxamide]	1000 to 10000 nM
CC(C)(C)C1CCCc2nc3sc(C#N)cc3cc2C1 (stereo not drawn) [Example 60]	< 100 nM
CC(C)(C)C1CCc2nc3sc(C(=O)NC(CO)(CO)CO)cc3cc2C1 (stereo not drawn) [Example 98]	1000 to 10000 nM
N#Cc1sc2nc3c(cc2c1N)CC(c1ccccc1)CC3 (stereo not drawn) [Example 3]	> 10000 nM
N#Cc1sc2nc3c(cc2c1N)CC1(CC3)OCCO1 [Example 44]	> 10000 nM
CC(C)(C)[C@@H]1CCc2nc3sc(C(=O)N[C@H](CN)c4ccc(NC(=O)c5cnccn5)cc4)cc3cc2C1 [Example 269, 6(R)-tert-Butyl-5,6,7,8-tetrahydro-thieno[2,3-b]quinoline-2-carboxylic acid (2-amino-1(S)-{4-[(pyrazine-2-carbonyl)-amino]-phenyl}-ethyl)-amide]	< 100 nM
CC(C)C1CCc2nc3sc(C#N)c(N)c3cc2C1 (stereo not drawn) [Example 1, 3-amino-6-isopropyl-5,6,7,8-tetrahydrothieno[2,3-b]quinoline-2-carbonitrile]	1000 to 10000 nM
CC(C)(C)C1CCc2nc3sc(C(=O)Nc4ccc(O)cc4)cc3cc2C1 (stereo not drawn) [Example 226A, 2-(1-Amino-4-Hydroxyphenyl) carboxamido-6-tert-butyl-5,6,7,8-tetrahydrothieno [2,3-b]quinoline]	100 to 1000 nM
Cn1nc(C(F)(F)F)c(C(=O)Nc2cccc([C@@H](CN)NC(=O)c3cc4cc5c(nc4s3)CC[C@@H](C(C)(C)C)C5)c2)c1Cl [Example 246]	< 100 nM
CCC(CC)C1CCc2nc3sc(C#N)c(N)c3cc2C1 (stereo not drawn) [Example 26]	100 to 1000 nM
CC(C)CCC1CCc2nc3sc(C#N)c(N)c3cc2C1 (stereo not drawn) [Example 20]	> 10000 nM
C[C@@H]1CNCCN1C(=O)Nc1cccc([C@@H](CN)NC(=O)c2cc3cc4c(nc3s2)CC[C@@H](C(C)(C)C)C4)c1 [Example 277]	< 100 nM
CC(C)(C)C1CCc2nc3sc(C(=O)NC(CNCCO)c4cccc(NC(=O)c5ccco5)c4)cc3cc2C1 (stereo not drawn) [Example 264, 6-tert-butyl-5,6,7,8-tetrahydrothieno[2,3-b]quinoline-2-carboxylic acid [1-{3-[(furan-2-carbonyl)amino]phenyl}-2-(2-hydroxyethylamino)ethyl]amide]	< 100 nM
CC(C)(C)C1CCc2nc3sc(C(=O)NC(CN)c4ccc(C(N)=O)cc4)cc3cc2C1 (stereo not drawn) [Example 224, 6-tert-butyl-5,6,7,8-tetrahydrothieno[2,3-b]quinoline-2-carboxylic acid [2-amino-1-(4-carbamoylphenyl)ethyl]amide]	< 100 nM
CC(C)(C)C1CCc2nc3sc(C(=O)NCCN)cc3cc2C1 (stereo not drawn) [Example 99]	< 100 nM
CC(C)(C)C1CCc2nc3sc(C#N)cc3cc2C1 (single isomer, unassigned) [Example 63]	< 100 nM

Same assay, conditions: exact IC50 values, end-point assay (Table 2); read-out: IC50

SMILES	IC50
CC(C)(C)C1CCc2nc3sc(C(=O)N[C@H](CN)c4ccsc4)cc3cc2C1 (stereo partly drawn) [Example 284, 6-tert-butyl-5,6,7,8-tetrahydro-thieno[2,3-b]quinoline-2-carboxylic acid (2-amino-1(S)-thiophen-3-yl-ethyl)-amide]	8 nM
C[C@@H]1CNCCN1C(=O)Nc1cccc([C@@H](CN)NC(=O)c2cc3cc4c(nc3s2)CC[C@@H](C(C)(C)C)C4)c1 [Example 277]	10 nM
CC(C)(C)C1CCc2nc3sc(C(=O)NCCN)cc3cc2C1 (stereo not drawn) [Example 99]	22 nM
CC(C)(C)C1CCc2nc3sc(C#N)cc3cc2C1 (single isomer, unassigned) [Example 63]	40 nM
